Assay results from US10444229B2, “Method of measuring insulin resistance with fatty acid combustion, and composition used herein” (OTSUKA PHARMACEUTICAL CO., LTD., priority 2013, dated 2019).
Like-named read-outs stand apart in the source and are kept apart here.

Experiments:
[1] = 13C breath test after intravenous administration of 13C-labeled compounds to ZDF rats (Lean and Fatty), fasting or feeding (Experimental Example 2); details: for Δ13C(‰) of Fatty versus Lean rats: rat, in vivo, iv; for Δ13C(‰) in expired air, fasting state versus feeding state / transition of Δ13C(‰), Lean rats versus Fatty rats: intravenous; for transition of Δ13C(‰), Lean rats versus Fatty rats: ZDF rats, fasting and feeding groups
Text: ZDF Fatty rat is an insulin-resistant test subject animal that has a low sensitivity to insulin, and develops a pathological condition similar to human adult type II diabetes and diabetes complication. In contrast, ZDF Lean rat is a healthy subject animal having normal blood glucose level and normal sensitivity to insulin. Lean and Fatty rats (A) were divided into a fasting group in which the rats were fasted from the previous day, and a feeding group. […] For (a) to (e), expired air was collected from rats (A), and for (f), expired air was collected and rats (B) (each group, n=3).
Expired air was obtained at time points (t minutes) from a time point before the administration of solutions (a) to (f) (0 minutes) to a time point 60 minutes after the administration, and Δ^13C(‰) was determined from ^13CO2 concentration in the expired air using an expired air analysis mass spectrometer (ABCA: product of SerCon).

[2] = for Δ13C(‰) in expired air, fasting state versus feeding state: intravenous 2 ml/kg
Experimental: OLETF rats are type II diabetes test subject animal with obesity or/and fatty liver, and LETO rats serve as a control thereof (healthy subjects).
These rats were divided into a fasting group in which the rats were fasted from the previous day, and a feeding group. 1-^13C-sodium palmitate solution prepared in Experimental Example 2 was intravenously administered (2 ml/kg) to each group (each group, n=3). Expired air was collected at time points (t minutes) from a time point before the 1-^13C-sodium palmitate solution administration (0 minutes) to a time point 60 minutes after the administration, and Δ^13C(‰) was determined from the ^13CO2 concentration in the expired air using an expired air analysis mass spectrometer (ABCA: product of SerCon).

[3] = fasted Zucker rats
Experimental: 1-^13C-sodium palmitate was dissolved in hydrous ethanol at about 80° C. at a concentration of 500 μmol/mL.
Rats (male, Zucker rat) were used as experimental animals. The rats that were fasted from the previous day of the test were divided into two groups: oral administration group and intravenous administration group (each group, n=3), and the 1-^13C-sodium palmitate solution (20 μmol/2 mL) prepared in (1) was orally and intravenously administered at a dosage of 2 mL/kg. Expired air was collected at each time point (t minutes) from a time point before administration (0 minutes) to a time point 180 minutes after the administration, and Δ^13C(‰) was determined from the concentration of ^13CO2 in the expired air using an expired air analysis mass spectrometer (ABCA: product of SerCon).
The value of Δ^13C(‰) was determined by measuring a concentration ratio ^13CO2/^12CO2 in the expired air (δ^13C value) at each time point (t minutes) from a time point before the 1-^13C-sodium palmitate administration (0 minutes) to a time point after the administration, and calculating the Δ^13C(‰) value from the difference between the δ^13C value (δ^13Ct) at each point (t) and the δ^13C value before the administration (δ^13Co) (δ^13Ct-δ^13Co) (the same calculation is used in the Experimental Examples below).

[4] = ZDF Fatty vs Lean and OLETF vs LETO, 11 weeks
Experimental: These rats were divided into a fasting group in which the rats were fasted from the previous day, and a feeding group. 1-^13C-sodium palmitate solution prepared in Experimental Example 2 was intravenously administered (2 ml/kg) to each group (each group, n=3).

[5] = ZDF Fatty rats (insulin-resistant)
[6] = ZDF Lean rats (healthy subjects)

SMILES	Δ13C(‰) of Fatty versus Lean rats [1]	Δ13C(‰) in expired air, fasting state versus feeding state [1, 5]	Δ13C(‰) in expired air, fasting state versus feeding state [1, 6]	transition of Δ13C(‰), Lean rats versus Fatty rats [1]	other results
CCCCCCCCCCC[13C](=O)O [1-^13C-lauric acid]	higher than that of the healthy subjects (Lean)	–	–	–	–
CCCCCCCC/C=C\CCCCCCC[13C](=O)O [1-^13C-oleic acid]	higher than that of the healthy subjects (Lean)	higher in the fasting (hunger) state than in the feeding state	higher in the fasting (hunger) state than in the feeding state	–	–
C[13C](=O)[O-].[Na+] [1-^13C-sodium acetate, reference compound]	–	–	–	little difference between the results of Lean rats and the results of Fatty rats	–
CCCCCCC[13C](=O)[O-].[Na+] [1-^13C-sodium octanoate, reference compound]	–	–	–	little difference between the results of Lean rats and the results of Fatty rats	–
CCCCCCCCCCCCCCC[13C](=O)[O-].[Na+] [1-^13C-sodium palmitate]	higher than that of the healthy subjects (Lean)	higher in the fasting (hunger) state than in the feeding state	higher in the fasting (hunger) state than in the feeding state	–	Δ13C(‰) in expired air, fasting state versus feeding state ([2]; LETO rats (healthy subjects)): higher in the fasting (hunger) state than in the feeding state; Δ13C(‰) in expired air, fasting state versus feeding state ([2]; OLETF rats (insulin-resistant, liver disease)): higher in the fasting (hunger) state than in the feeding state; Δ13C(‰) of OLETF versus LETO rats ([2]; fasting group and feeding group, period until 15 minutes after intravenous administration): higher than that of the healthy subjects (LETO); excretion in expired air [3]: excreted in expired air as ^13CO2; time of Δ13C(‰) peak in expired air after administration ([3]; intravenous administration, 2 mL/kg of 20 μmol/2 mL): ≤ 10 min; transition of Δ13C(‰) in expired air ([3]; oral administration, 2 mL/kg of 20 μmol/2 mL, 0-180 minutes): little variation among respective measurement times; transition of Δ13C(‰), insulin-nonresistant hyperinsulinemia test subject versus healthy subject ([4]; fasting state): little difference; Δ13C(‰) value, insulin-nonresistant hyperinsulinemia test subject versus healthy subject ([4]; feeding state): significantly lower than that of the healthy subject
